Source: article PMC10209615, “Pharmacological inhibition of LSD1 suppresses growth of hepatocellular carcinoma by inducing GADD45B” (MedComm, 2023)

Experiments:
nine HCC cell lines = assay: CCK‐8 cell proliferation assay; format: cell-based; settings: Homo sapiens; post‐treatment for 144 h; read-out: half‐maximal inhibitory concentration (IC50), proliferation of HCC cell lines
Experimental: Cell viability was determined using Cell Counting Kit‐8 (CCK8; Dojindo) or 3‐(4, 5‐dimethylthiazol‐2‐yl)‐2,5‐diphenyltetrazoliumbromide (MTT, Sigma Aldrich) assay. […] Consequently, cell viability was determined using a microplate reader (Thermo Fisher) at 450 nm for CCK8 assay, or 570 nm for MTT assay, at different time points. The IC50 values and CI values were analyzed and calculated using GraphPad Prism 8 and CompuSyn (version 1.0; http://www.combosyn.com), respectively.

HCCLM3 = assay: Cell proliferation assay; format: cell-based; settings: Homo sapiens, HCCLM3, 144 h
Experimental: (§1) Cell viability was determined using Cell Counting Kit‐8 (CCK8; Dojindo) or 3‐(4, 5‐dimethylthiazol‐2‐yl)‐2,5‐diphenyltetrazoliumbromide (MTT, Sigma Aldrich) assay. A selection of HCC cells was exposed to gradient concentration of ZY0511 for 96–144 h, or exposed to other LSD1 inhibitors including SP2509, GSK2879552, and ORY1001 for 144 h, or exposed to DTP3, which enhanced the apoptosis induction function of GADD45B for 96 h in combination therapy. Consequently, cell viability was determined using a microplate reader (Thermo Fisher) at 450 nm for CCK8 assay, or 570 nm for MTT assay, at different time points. The IC50 values and CI values were analyzed and calculated using GraphPad Prism 8 and CompuSyn (version 1.0; http://www.combosyn.com), respectively.

HuH6 = assay: Cell proliferation assay; format: cell-based; settings: Homo sapiens, HuH-6; HuH6, 144 h
Experimental: as §1

SK-Hep-1 = assay: Cell proliferation assay; format: cell-based; settings: Homo sapiens, SK-HEP1; SK-Hep-1, 144 h
Experimental: as §1

JHH7 = assay: Cell proliferation assay; format: cell-based; settings: Homo sapiens, JHH7, 144 h
Experimental: as §1

HepG2 = assay: Cell proliferation assay; format: cell-based; settings: Homo sapiens, HepG2, 144 h
Experimental: as §1

PLC/PRF/5 = assay: Cell proliferation assay; format: cell-based; settings: Homo sapiens; PLC/PRF/5, 144 h
Experimental: as §1

QGY7701 = assay: Cell proliferation assay; format: cell-based; settings: Homo sapiens, QGY7701, 144 h
Experimental: as §1

Hep3B = assay: Cell proliferation assay; format: cell-based; settings: Homo sapiens, 144 h
Experimental: as §1

HuH7 = assay: Cell proliferation assay; format: cell-based; settings: Homo sapiens, Huh-7; HuH7, 144 h
Experimental: as §1

[1] = target: Truncated human LSD1 (residues 172–836) (Homo sapiens, UniProt O60341); assay: Surface plasmon resonance (Biacore); format: binding; settings: 25°C, read-out: dissociation constant (KD)
Experimental: Briefly, the truncated LSD1 was cloned into a pET28a plasmid and expressed in Escherichia coli BL21(DE3) at 18°C (Novagen). The fusion protein was purified by the nickel charged nitrilotriacetic acid (Ni‐NTA, GE Healthcare) with buffer A (20 mM Tris‐HCl, pH 8.5, 10 mM imidazole, 500 mM NaCl, and 2 mM dithiothreitol DTT) and buffer B (20 mM Tris‐HCl, Ph 8.5, 500 mM imidazole, 500 mM NaCl, and 2 mM DTT). Then, LSD1 was digested overnight with Thrombin Protease (Sigma Aldrich) to remove His‐tag and dialyzed against buffer C (20 mM Tris‐HCl, pH 8.5, 150 mM NaCl, and 2mM DTT) overnight at 4°C. The next day, the target protein was applied to Ni‐NTA again to remove the uncleaved His‐tag protein. LSD1 without His‐tag was further purified by an S200 16/600 column (GE Healthcare) in buffer C. The quality of purified LSD1 was checked by sodium dodecyl sulphate‐polyacrylamide gel electrophoresis (SDS‐PAGE).[47]
LSD1 protein was immobilized on a CM5 sensor chip by the amine‐coupling method. […] The binding kinetics was analyzed using BIAevaluation software (version 4.1, Biacore).

IC50 (nine HCC cell lines) [µM] | IC50 (HCCLM3) [µM] | IC50 (HuH6) [µM] | IC50 (SK-Hep-1) [µM] | IC50 (HepG2) [µM] | IC50 (Hep3B) [µM] | IC50 (HuH7) [µM] | Compound | IC50 (JHH7) [µM] | IC50 (PLC/PRF/5) [µM] | IC50 (QGY7701) [µM] | Kd [1] [µM]
≥ 28.6 | > 100 | > 100 | > 100 | > 100 | > 100 | > 100 | O=C(O)c1ccc(CN2CCC(CN[C@@H]3C[C@H]3c3ccccc3)CC2)cc1 [GSK2879552] | > 100 | > 100 | > 100 | –
– | – | – | – | – | – | – | C/C(=N\NC(=O)c1cccc(S(=O)(=O)N2CCOCC2)c1)c1cc(Cl)ccc1O [SP2509] | – | – | – | 0.0198
≥ 28.6 | > 100 | 46.3 ± 1.39 | 35.8 ± 5.05 | > 100 | 28.6 ± 6.72 | > 100 | N[C@H]1CC[C@H](N[C@@H]2C[C@H]2c2ccccc2)CC1 [ORY1001] | 56.2 ± 9.07 | > 100 | > 100 | –
